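Values below derive from 48-hour exposures of cells grown in 96-well plates, with endpoints linearly interpolated between the two concentrations bracketing the appropriate inhibition level. Here, GI50 denotes the concentration required for 50% inhibition of growth. TGI is the concentration that stops growth completely.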
What was measured:
Assay in all cases: NCI-60 cell line screen, 48 h
OVCAR-4 ovarian = test system: OVCAR-4 ovarian
SW-620 colon = test system: SW-620 colon
SK-MEL-28 melanoma = test system: SK-MEL-28 melanoma
UO-31 renal = test system: UO-31 renal
HCT-116 colon = test system: HCT-116 colon
MDA-MB-435 = test system: MDA-MB-435
NCI-H226 lung = test system: NCI-H226 lung
BT-549 breast = test system: BT-549 breast
UACC-257 melanoma = test system: UACC-257 melanoma
NCI-H460 lung = test system: NCI-H460 lung
SF-268 CNS = test system: SF-268 CNS
CCRF-CEM leukemia = test system: CCRF-CEM leukemia
SK-MEL-5 melanoma = test system: SK-MEL-5 melanoma
SF-539 CNS = test system: SF-539 CNS
ACHN renal = test system: ACHN renal
DU-145 prostate = test system: DU-145 prostate
A549 NSCLC = test system: A549 NSCLC
HCT-15 colon = test system: HCT-15 colon
SNB-75 CNS = test system: SNB-75 CNS
KM12 colon = test system: KM12 colon
PC-3 prostate = test system: PC-3 prostate
RXF 393 renal = test system: RXF 393 renal
OVCAR-5 ovarian = test system: OVCAR-5 ovarian
HCC-2998 colon = test system: HCC-2998 colon
OVCAR-3 ovarian = test system: OVCAR-3 ovarian
HS 578T breast = test system: HS 578T breast
SK-MEL-2 melanoma = test system: SK-MEL-2 melanoma
NCI-H23 lung = test system: NCI-H23 lung
K-562 leukemia = test system: K-562 leukemia
TK-10 renal = test system: TK-10 renal
EKVX NSCLC = test system: EKVX NSCLC
SR leukemia = test system: SR leukemia
SN12C renal = test system: SN12C renal
A498 renal = test system: A498 renal
786-0 renal = test system: 786-0 renal
MOLT-4 leukemia = test system: MOLT-4 leukemia
SF-295 CNS = test system: SF-295 CNS
HOP-92 NSCLC = test system: HOP-92 NSCLC
HOP-62 NSCLC = test system: HOP-62 NSCLC
HT29 colon = test system: HT29 colon
NCI/ADR-RES ovarian = test system: NCI/ADR-RES ovarian
MALME-3M melanoma = test system: MALME-3M melanoma
SNB-19 CNS = test system: SNB-19 CNS
LOX IMVI melanoma = test system: LOX IMVI melanoma
COLO 205 colon = test system: COLO 205 colon
HL-60(TB) leukemia = test system: HL-60(TB) leukemia
MCF7 breast = test system: MCF7 breast
U251 CNS = test system: U251 CNS
M14 melanoma = test system: M14 melanoma
UACC-62 melanoma = test system: UACC-62 melanoma
NCI-H522 lung = test system: NCI-H522 lung
OVCAR-8 ovarian = test system: OVCAR-8 ovarian
T-47D breast = test system: T-47D breast
SK-OV-3 ovarian = test system: SK-OV-3 ovarian
CAKI-1 renal = test system: CAKI-1 renal

For `CNC(=O)c1cc(Oc2cccc3nc(NC(=O)Nc4cc(C(F)(F)F)cc(C(F)(F)F)c4)ccc23)ccn1`, the GI50 (OVCAR-4 ovarian) was 2.37 µM, the TGI (OVCAR-4 ovarian) was 7.51 µM and the GI50 (SW-620 colon) was 16.9 µM. For the same compound, the TGI (SW-620 colon) was > 100 µM, the GI50 (SK-MEL-28 melanoma) was 4.67 µM and the TGI (SK-MEL-28 melanoma) was > 100 µM. It also gave a GI50 (UO-31 renal) of 4.91 µM, a TGI (UO-31 renal) of 40.5 µM and a GI50 (HCT-116 colon) of 13.8 µM. The TGI (HCT-116 colon) was 41.8 µM, the GI50 (MDA-MB-435) was 4.7 µM and the TGI (MDA-MB-435) was > 100 µM. For the same compound, the GI50 (NCI-H226 lung) was 4.21 µM, the TGI (NCI-H226 lung) was 39.8 µM and the GI50 (BT-549 breast) was 11.4 µM. It also gave a TGI (BT-549 breast) of 55.6 µM, a GI50 (UACC-257 melanoma) of 13.2 µM and a TGI (UACC-257 melanoma) of 44.1 µM. For the same compound, the GI50 (NCI-H460 lung) was 4.16 µM, the TGI (NCI-H460 lung) was 36.6 µM and the GI50 (SF-268 CNS) was 4.93 µM. For the same compound, the TGI (SF-268 CNS) was 39.4 µM, the GI50 (CCRF-CEM leukemia) was 29.4 µM and the TGI (CCRF-CEM leukemia) was > 100 µM. The GI50 (SK-MEL-5 melanoma) was 6.2 µM, the TGI (SK-MEL-5 melanoma) was 24.2 µM and the GI50 (SF-539 CNS) was 6.68 µM. For the same compound, the TGI (SF-539 CNS) was 37.9 µM, the GI50 (ACHN renal) was 3.8 µM and the TGI (ACHN renal) was 16.4 µM. It also gave a GI50 (DU-145 prostate) of 6.29 µM, a TGI (DU-145 prostate) of 65.9 µM and a GI50 (A549 NSCLC) of 4.54 µM. The TGI (A549 NSCLC) was > 100 µM, the GI50 (HCT-15 colon) was 18.1 µM and the TGI (HCT-15 colon) was > 100 µM. For the same compound, the GI50 (SNB-75 CNS) was 2.38 µM, the TGI (SNB-75 CNS) was 14.9 µM and the GI50 (KM12 colon) was 15.2 µM. For the same compound, the TGI (KM12 colon) was > 100 µM, the GI50 (PC-3 prostate) was 6.06 µM and the TGI (PC-3 prostate) was 38.2 µM. For the same compound, the GI50 (RXF 393 renal) was 3.03 µM, the TGI (RXF 393 renal) was 9.48 µM and the GI50 (OVCAR-5 ovarian) was 13.3 µM. For the same compound, the TGI (OVCAR-5 ovarian) was > 100 µM, the GI50 (HCC-2998 colon) was 15.5 µM and the TGI (HCC-2998 colon) was > 100 µM. The GI50 (OVCAR-3 ovarian) was 4.07 µM, the TGI (OVCAR-3 ovarian) was 21.3 µM and the GI50 (HS 578T breast) was 2.57 µM. For the same compound, the TGI (HS 578T breast) was 13.5 µM, the GI50 (SK-MEL-2 melanoma) was 12.7 µM and the TGI (SK-MEL-2 melanoma) was 25.6 µM. It also gave a GI50 (NCI-H23 lung) of 6.15 µM, a TGI (NCI-H23 lung) of 42.7 µM and a GI50 (K-562 leukemia) of 9.29 µM. For the same compound, the TGI (K-562 leukemia) was > 100 µM, the GI50 (TK-10 renal) was 3.22 µM and the TGI (TK-10 renal) was 11.5 µM. It also gave a GI50 (EKVX NSCLC) of 4.46 µM, a TGI (EKVX NSCLC) of 86.3 µM and a GI50 (SR leukemia) of 13 µM. For the same compound, the TGI (SR leukemia) was > 100 µM, the GI50 (SN12C renal) was 5.27 µM and the TGI (SN12C renal) was > 100 µM. The GI50 (A498 renal) was 1.99 µM, the TGI (A498 renal) was 5.02 µM and the GI50 (786-0 renal) was 2.41 µM. The TGI (786-0 renal) was 5.73 µM, the GI50 (MOLT-4 leukemia) was 35.9 µM and the TGI (MOLT-4 leukemia) was > 100 µM. For the same compound, the GI50 (SF-295 CNS) was 3.69 µM, the TGI (SF-295 CNS) was 15.2 µM and the GI50 (HOP-92 NSCLC) was 2.5 µM. For the same compound, the TGI (HOP-92 NSCLC) was 6.27 µM, the GI50 (HOP-62 NSCLC) was 3.37 µM and the TGI (HOP-62 NSCLC) was 10.4 µM. For the same compound, the GI50 (HT29 colon) was 3.51 µM, the TGI (HT29 colon) was > 100 µM and the GI50 (NCI/ADR-RES ovarian) was 5.62 µM. It also gave a TGI (NCI/ADR-RES ovarian) of 52 µM, a GI50 (MALME-3M melanoma) of 2.62 µM and a TGI (MALME-3M melanoma) of 12.9 µM. For the same compound, the GI50 (SNB-19 CNS) was 5.31 µM, the TGI (SNB-19 CNS) was 38 µM and the GI50 (LOX IMVI melanoma) was 3.26 µM. For the same compound, the TGI (LOX IMVI melanoma) was 29.5 µM, the GI50 (COLO 205 colon) was 10.8 µM and the TGI (COLO 205 colon) was 23.8 µM. For the same compound, the GI50 (HL-60(TB) leukemia) was 23.4 µM, the TGI (HL-60(TB) leukemia) was 77.2 µM and the GI50 (MCF7 breast) was 7.43 µM. It also gave a TGI (MCF7 breast) of 66.6 µM, a GI50 (U251 CNS) of 2.47 µM and a TGI (U251 CNS) of 6.27 µM. For the same compound, the GI50 (M14 melanoma) was 10.2 µM, the TGI (M14 melanoma) was 62.8 µM and the GI50 (UACC-62 melanoma) was 3.56 µM. The TGI (UACC-62 melanoma) was 22.5 µM, the GI50 (NCI-H522 lung) was 6.65 µM and the TGI (NCI-H522 lung) was 35.4 µM. It also gave a GI50 (OVCAR-8 ovarian) of 5.09 µM, a TGI (OVCAR-8 ovarian) of 26.8 µM and a GI50 (T-47D breast) of 4.13 µM. The TGI (T-47D breast) was 31.1 µM, the GI50 (SK-OV-3 ovarian) was 2.99 µM and the TGI (SK-OV-3 ovarian) was 10.1 µM. For the same compound, the GI50 (CAKI-1 renal) was 10.1 µM and the TGI (CAKI-1 renal) was 57.3 µM.

From PubChem BioAssay (NCI)
